US11203739B2, “Modulating cell proliferation and pluripotency” (Memorial Sloan Kettering Cancer Center, priority 2014, dated 2021)
Entries after “also recorded” stand apart in the source; their conditions may differ.

Tests used:
Type in all cases: cell-based, mouse
[1] = system: ESC-1 cells; assay: qRT-PCR gene expression of ICM and germline-associated genes; conditions: for expression of ICM and germline-associated genes: ESC-1 cells, three days
Procedure: qRT-PCR. RNA was isolated using the RNeasy kit (Qiagen). After DNase treatment, 1-2 μg RNA was used for cDNA synthesis using the First-Strand Synthesis kit (Invitrogen). Quantitative RT-PCR analysis was performed in biological triplicate using an ABI Prism 7000 (Applied Biosystems) with Platinum SYBR green.

[2] = system: ESC-1 cells; assay: Colony formation (self-renewal) assay with alkaline phosphatase staining; conditions: S/L medium, 4 mM, four days; for number of undifferentiated colonies: compared to S/L and the other treatment
Procedure: Self-renewal assays. ES cells free of feeder MEFs were plated at 100 cells per well in 6-well plates coated with 20 μg/mL mouse laminin (Stemgent 06-0002) in maintenance S/L medium. The following day media was changed to S/L experimental medium containing dimethyl-α-ketoglutarate (4 mM, Sigma 349631), dimethyl-succinate (4 mM, Sigma W239607) or DMSO vehicle control. Four days later cells were washed with PBS and stained for alkaline phosphatase using Vector Red Alkaline Phosphatase Kit (Vector Labs) according to manufacturer's instructions.

[3] = system: ESC-V19 cells; assay: Growth curves in glutamine-free medium; conditions: glutamine-free S/L or 2i/L media, 4 mM DM-αKG
Procedure: (§1) Cell culture. Maintenance media for ES cells were as follows: serum/LIF (S/L) maintenance medium contained Knockout DMEM (Gibco) supplemented with 15% ESC-qualified FBS (Gemini), penicillin/streptomycin (Life Technologies), 0.1 mM 2-mercaptoethanol, L-glutamine (2 mM, Life Technologies) and leukemia inhibitory factor (LIF) plated onto irradiated feeder mouse embryonic fibroblasts (MEFs); 2i/LIF maintenance conditions used a base medium made from a 1:1 mix of DMEM/F12 (Life Technologies 11302-033) and Neurobasal (Life Technologies 21103-049) containing N2 and B27 supplements (Life Technologies 17502-048 and 17504-044, 1:100 dilutions), penicillin/streptromycin, 0.1 mM 2-mercaptoethanol, L-glutamine (2 mM), LIF, CHIR99021 at 3 μM (Stemgent) and PD0325901 at 1 μM (Stemgent). Experimental media utilized for all experiments (except growth curves with and without glucose, ^13C isotope tracing experiments and ^14C labeling experiments) contained 1:1 mix of glutamine-free DMEM (Life Technologies 11960-051) and Neurobasal (Life Technologies 21103-049) with or without 2 mM glutamine. With the exception of 15% dialyzed FBS (Gemini 100-108) in S/L experimental medium, all other supplements were equivalent to maintenance media (S/L or 2i/L). […]
Growth curves. […] Cells were counted each day using a Beckman Coulter Multisizer 4.

[4] = system: ESC-1 cells; assay: Western blot of histone methylation in glutamine-free media with DM-αKG supplementation; conditions: glutamine-free S/L or 2i/L media, 24 hours
Procedure: as §1

[5] = system: ESC-1 cells; assay: DNA methylation quantification (% 5mC); conditions: S/L medium, 24 hours
Procedure: DNA methylation. Genomic DNA was extracted from ESC samples using Puregene Core Kit A (Sigma). DNA methylation was measured using the colorimetric MethylFlash Methylated DNA quantification kit (Epigentek) according to manufacturer instructions.

[6] = system: Nanog-GFP ESCs; assay: Nanog-GFP reporter FACS; conditions: S/L medium, three days
Procedure: FACS. Nanog-GFP ESCs^8 were cultured in S/L experimental medium for three passages and 2.5×10^4 cells were plated into a 6-well plate. Twenty-four hours later media was changed to S/L medium containing vehicle control or DM-AKG. Media was subsequently changed 48 hours later and cells harvested the following day. FACS analysis was performed at The Rockefeller University Flow Cytometry Resource Center using a BD LSR II. Data was generated using FlowJo. Analysis was performed on biological triplicates.

[7] = system: UTX and Jmjd3; assay: Western blot of H3K27 methylation after GSK-J4 treatment; conditions: ESC-1 cells in S/L, increasing amounts of GSK-J4, 24 hours
Procedure: as §1

[8] = system: UTX/Jmjd3; assay: H3K27me3 ChIP-PCR at bivalent domain promoters; conditions: 30 μM, five hours
Procedure: Chromatin immunoprecipitation. Native ChIP assays (histones) were performed with approximately 6×10^6 ESCs per experiment. Cells were subject to hypotonic lysis and treated with micrococcal nuclease to recover mono- to tri-nucleosomes. Nuclei were lysed by brief sonication and dialyzed into N-ChIP buffer (10 mM Tris pH 7.6, 1 mM EDTA, 0.1% SDS, 0.1% Na-Deoxycholate, 1% Triton X-100) for 2 hr at 4° C. Soluble material was incubated overnight at 4° C. following addition of 3-5 μg of antibody bound to 75 μL protein A Dynal magnetic beads (Invitrogen), with 5% kept as input DNA. Magnetic beads were washed, chromatin was eluted, and ChIP DNA was dissolved in 10 mM Tris pH 8 for quantitative PCR reactions (see below).
ChIP-qPCR. Primers are listed below. All qPCR was performed using an Applied Biosystems StepOnePlus system and Power SYBR Green PCR master mix. ChIP samples were diluted 1:100 in H2O and 5 μL used per reaction. ChIP-qPCR signals were calculated as percent input.

[9] = system: ESC-1 cells; assay: GC-MS metabolite profiling, αKG:succinate ratio; conditions: 1 μM or 5 μM, 3 hours; for αKG:succinate ratio: S/L or 2i/L medium
Procedure: Metabolite profiling. For all metabolite experiments, cells were seeded in their standard culture medium in 6-well plates and the next day were changed into experimental medium. Medium was changed again at the indicated time before harvest (usually 1-24 hours). Metabolites were extracted with 1 mL ice-cold 80% methanol supplemented with 20 μM deuterated 2-hydroxyglutarate (D-2-hydroxyglutaric-2,3,3,4,4-d5 acid, d5-2HG) as an internal standard. After overnight incubation at −80° C., lysates were harvested and centrifuged at 21,000 g for 20 minutes to remove protein. Extracts were dried in an evaporator (Genevac EZ-2 Elite) and resuspended by incubation at 30° C. for 2 hours in 50 μL of 40 mg/mL methoxyamine hydrochloride in pyridine. Metabolites were further derivatized by addition of 80 μL of MSTFA +1% TCMS (Thermo Scientific) and 70 μl ethyl acetate (Sigma) and incubated at 37° C. for 30 minutes. Samples were analyzed using an Agilent 7890A GC coupled to Agilent 5975C mass selective detector. […] Peaks representing compounds of interest were extracted and integrated using MassHunter software (Agilent Technologies) and then normalized to both the internal standard (d5-2HG) peak area and protein content of duplicate samples as determined by BCA protein assay (Thermo Scientific). Ions used for quantification of metabolite levels are as follows: d5-2HG m/z 354; KG, m/z 304; aspartate, m/z 334; citrate, m/z 465; glutamate, m/z 363; malate, m/z 335 and succinate, m/z 247. […] Enrichment of ^13C was assessed by quantifying the abundance of the following ions: αKG, m/z 304-315; aspartate, m/z 334-346; citrate, m/z 465-482; glutamate, m/z 363-377 and malate, m/z 335-347. […] Flux was calculated as the product of the first order rate constant of the kinetic labeling curve and relative metabolite pool size (normalized to mean S/L values for each experiment)^5. The flux from glucose- and glutamine-derived carbons was calculated for each of three independent experiments and the average total flux for each metabolite was shown.

Compound: COC(=O)CCC(=O)OC [DM-succinate, dimethyl-succinate]
- expression of ICM and germline-associated genes [1]: not
- predominant colony types [2]: either mixed or differentiated
- number of undifferentiated colonies [2]: reproducible trend of fewer undifferentiated and more differentiated colonies

Compound: COC(=O)CCC(=O)C(=O)OC [DM-αKG, dimethyl-α-ketoglutarate]
- glutamine-independent proliferation [3]: sufficient to enable glutamine-independent proliferation in both S/L and 2i/L conditions
- H3K27me3 and H4K20me3 levels (Western blot) [4]: reversed the increase in H3K27me3 and H4K20me3
- total DNA methylation (% 5mC) [5]: reduced
- effects on gene expression in Tet1/Tet2 double knockout ES cells ([1]; 72 hours): largely abrogated in Tet1/Tet2 double knockout ES cells
- expression of ICM and germline-associated genes [1]: induced expression of ICM and germline-associated genes
- effects on gene expression upon extended passaging ([1]; S/L medium, 24 hours or four passages): persisted upon extended passaging
- colony staining and morphology (brightfield images) [2]: stained brighter and retained a more compact colony morphology
- number of undifferentiated colonies [2]: more than double the number of fully undifferentiated colonies; also recorded: more undifferentiated colonies than vehicle or DM-succinate treated wells
- Nanog expression detected by GFP fluorescence [6]: sufficient to enhance Nanog expression in a dose-dependent manner

Compound: CCOC(=O)CCNc1cc(N2CCc3ccccc3CC2)nc(-c2ccccn2)n1 [GSK-J4]
- H3K27me1 level (Western blot) [7]: concomitant reduction of H3K27me1
- H3K27me3 level (Western blot) [7]: dose-dependent increase in H3K27me3
- H3K27me3 at bivalent domain promoters ([8]; ESC-1 cells in 2i/L medium): consistent increase in H3K27me3 at bivalent domain promoters
- H3K27me3 at bivalent domain promoters ([8]; ESC-1 cells in S/L medium): did not change
- absolute and relative increase in the αKG:succinate ratio, 2i/L compared with S/L [9]: more pronounced in the cells grown in 2i/L medium
- αKG:succinate ratio [9]: triggered increases in the αKG:succinate ratio

Compound: CCOC(=O)CCNc1cc(N2CCc3ccccc3CC2)nc(-c2cccnc2)n1 [GSK-J5]
- αKG:succinate ratio [9]: had no effect
